Test [1] relates to lytic activity of D222D clone 2 against peptide-pulsed LCL target cells. The test is described as follows: Cytotoxic mechanism: ZnT8-specific lysis of LCL targets by D222D clone 2 in the presence of inhibitors. As to conditions: 4 h co-culture; concanamycin A 100 nM, brefeldin A 5 μg/ml, anti-FasL mAb 5 μg/ml. The format is cell-based, human. On the procedure: FIG. 6. […]; left to right). Live FarRed^+ target cells were counted at the end of the culture and normalized to a fixed amount of beads added to each well. Percent lysis is noted for each dot plot, calculated as 100×(live targets cultured alone)−(live targets in the presence of T cells)/(live targets cultured alone). B. Lysis of LCL targets pulsed with the indicated peptides and cultured with D222D clones at different E/T ratios. Percent lysis was calculated as above and depicted as mean±SEM of two independent experiments with clone 2 and 3, with data depicted in panel (A) used for clone 3. Similar profiles were obtained for clone 1 (not shown). C. ZnT8-specific lysis of peptide-pulsed LCL target cells co-cultured for 4 h with D222D clone 2 without inhibitors (−) or in the presence of concanamycin A (CMA, 100 nM), brefeldin A (BFA, 5 μg/ml), anti-FasL mAb (aFasL, clone NOK-1; 5 μg/ml) or IgG1 isotype control. *p<0.05 by Wilcoxon signed-rank test. Results are mean±SEM of triplicate measurements from one representative experiment out two performed.
LCL pulsed with 10 μM of the indicated peptide, K562-A2/ZnT8 or K562/A2 target cells were labeled with CellTrace FarRed (Life Technologies) and dispensed in 96-well flat-bottom plates at 10^5/well. Different numbers of CFSE-labeled T cells were added and co-cultured for 6-24 h, as indicated. […]

Test [2] concerns the target recombinant HLA-A2 molecules (Homo sapiens, UniProt P04439, D140Y/D185E/D98H/E176V/E277Q/G131W/G231S/I119V/I121R/I166T/I218V/N151K/N90K/P208A/P217A/Q86G/Q94H/R138H/R169H). The test is described as follows: Affinity and stability measurements of recombinant HLA-A2 molecules complexed with peptide. The format is binding. The conditions noted are these: recombinant HLA-A2 complexed with peptide; data not shown.

Test [3] concerns the target recombinant HLA-A2 molecules (Homo sapiens, UniProt P04439, /I119V/I121R/I166T/I218V/N151K/N90K/P208A/P217A/Q86G/Q94H/R138H/R169H). The test is described as above. The format is binding.

Four molecules from patent US11078251B2, “T cell receptors (TCR) and uses thereof for the diagnosis and treatment of diabetes” (INSERM (INSTITUT NATIONAL DE LA SANTÉ ET DE LA RECHERCHE …, priority 2015, dated 2021) can be followed below.

pKd: −log10 of the molar value. No end group written: not given here.

One may read the pKd as −log10 of the Kd, conventionally taken in molar units.

`C[C@H]1CCC/C=C/[C@@H]2C[C@H](O)C[C@H]2[C@H](O)/C=C/C(=O)O1` [brefeldin A]: the “inhibition of lytic activity” value in test [1] was “not”.
On the same count and under the same terms, to `C/C=C/[C@H]1O[C@@](O)([C@@H](C)[C@H](O)[C@H](C)[C@H]2OC(=O)/C(OC)=C/C(C)=C/[C@@H](C)[C@@H](O)[C@@H](CC)[C@@H](O)[C@H](C)C/C(C)=C/C=C/[C@@H]2OC)C[C@@H](O[C@H]2C[C@@H](O)[C@H](OC(N)=O)[C@@H](C)O2)[C@@H]1C` [concanamycin A] belongs “completely inhibited”.
Turning to AVAANIVLTV [ZnT8185-194], in test [2], the pKd is 6.68.
As for VAANIVLTV [ZnT8186-194], the pKd in test [3] was 7.82.
